Consider three compounds from article PMC6487070, “Molecular transport through primary human small intestinal monolayers by culture on a collagen scaffold with a gradient of chemical cross-linking” (Journal of Biological Engineering, 2019).

Where two headings read alike, the source gives them in different places.

Holding throughout (type): in vitro ADME
One data set concerns P-gp. Nature of the data set: Bidirectional transport of digoxin across monolayers with and without zosuquidar. The note with it: human, n = 3, read-out: efflux ratio Papp(B-L)/Papp(L-B). Here is the method:
(§1) All transport assays were performed by adding LY ([…]) and the drug to the luminal or basal reservoirs of the monolayer (n = 3). Samples were collected after 3 h. LY was added to ensure that monolayer integrity remained intact throughout the assay. Additionally, TEER was measured before and after the assay to further verify that monolayer integrity remained constant throughout the assay. Monolayers with a TEER > 90 Ω cm^2 or 300 Ω cm^2 were used for the gradient cross-linked scaffold and conventional scaffold, respectively. […] Zosuquidar and Ko143 were added to inhibit digoxin transport and prazosin transport, respectively, 2.5 h after addition of the substrate. Samples were collected 30 min after inhibitor addition for a totally assay time of 3 h.
The concentration of the drug in the collected sample was determined using HPLC-triple quadrupole mass spectrometry (LC-MS/MS, PE Sciex API 3000, AB Sciex) with multiple reaction monitoring (MRM). A C-18 analytical column with a linear gradient from 100% water with 1% formic acid to 80% acetonitrile with 1% formic acid over 8 min (0.3 mL/min) was used for the separation. […] Digitoxin was used as an internal standard for digoxin samples. Doxasozin was used an internal standard for prazosin samples. All internal standards were added to samples just prior to LC-MS/MS analysis. […] Sample concentrations were quantified using the standard curve and normalized to the signal of the appropriate internal standard. The drug apparent permeability was calculated according to the following equation: Papp = (V/(A x Ci)) x (Cf/T) where V is the volume of the basal chamber (mL), A is the area of epithelial layer (cm^2), Ci is the initial concentration of the molecule (nM), Cf is the final concentration of the drug, and T is the assay time (s). The average Papp with a single standard deviation is shown (average ± SD). The efflux ratio was calculated according to the following equation: Efflux Ratio = Papp(B-L)/Papp(L-B).

In the next data set the target is T1, BCRP (Homo sapiens, UniProt Q9UNQ0).
T1 construct: endogenous in cells; host or cells: primary human small intestinal epithelial cell monolayers on a gradient cross-linked or conventional collagen scaffold
T1 sequence (Q9UNQ0 1-655): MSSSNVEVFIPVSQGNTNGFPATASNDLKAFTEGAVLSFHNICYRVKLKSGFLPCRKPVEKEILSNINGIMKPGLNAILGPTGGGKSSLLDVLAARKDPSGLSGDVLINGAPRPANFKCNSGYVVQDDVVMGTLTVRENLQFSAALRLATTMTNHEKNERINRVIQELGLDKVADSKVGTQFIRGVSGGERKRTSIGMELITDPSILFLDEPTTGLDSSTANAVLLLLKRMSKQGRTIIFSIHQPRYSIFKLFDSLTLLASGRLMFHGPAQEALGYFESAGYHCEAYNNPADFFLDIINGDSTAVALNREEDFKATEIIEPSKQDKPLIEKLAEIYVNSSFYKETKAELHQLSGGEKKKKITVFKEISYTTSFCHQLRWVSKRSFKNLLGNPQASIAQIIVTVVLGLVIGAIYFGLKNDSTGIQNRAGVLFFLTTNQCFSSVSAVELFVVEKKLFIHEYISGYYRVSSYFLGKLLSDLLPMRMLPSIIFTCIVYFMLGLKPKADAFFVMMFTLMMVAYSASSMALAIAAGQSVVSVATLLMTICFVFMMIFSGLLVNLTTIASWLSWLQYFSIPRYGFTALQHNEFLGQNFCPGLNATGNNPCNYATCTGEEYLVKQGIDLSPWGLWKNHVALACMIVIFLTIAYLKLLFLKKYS
As to the kind of experiment: Bidirectional transport of prazosin across monolayers with and without Ko143. The note with it: gradient cross-linked scaffold. Here is the method:
as §1, with “Samples were collected 30 min after inhibitor addition for a totally assay time of 3 h.” left out
The concentration of the drug in the collected sample was determined using HPLC-triple quadrupole mass spectrometry (LC-MS/MS, PE Sciex API 3000, AB Sciex) with multiple reaction monitoring (MRM). […] Sample concentrations were quantified using the standard curve and normalized to the signal of the appropriate internal standard. The drug apparent permeability was calculated according to the following equation: Papp = (V/(A x Ci)) x (Cf/T) where V is the volume of the basal chamber (mL), A is the area of epithelial layer (cm^2), Ci is the initial concentration of the molecule (nM), Cf is the final concentration of the drug, and T is the assay time (s). […]

Data set [1] has as its system primary human small intestinal epithelial monolayers. As to the kind of experiment: Monolayer integrity: permeability of LY and fluorescein-dextran through small intestinal epithelial monolayers. The note with it: monolayers on gradient cross-linked scaffold and on conventional scaffold; luminal to basal, 3 h; n = 3. The procedure:
Neither LY nor fluorescein-dextran are transported by the intestinal epithelium. The TEER was measured using an EVOM^2 epithelial Volt/Ohm meter (World Precision Instruments, Sarasota, FL). The raw resistance measurements of the monolayers were subtracted from that of the average resistance (n = 3) of the collagen layer without cells and normalized by multiplying the cell culture area of the well to provide a TEER in units of Ω cm^2 [48]. The average TEER (n = 3) with a single standard deviation (SD) is shown (average ± SD). […] The amount of LY (ex: 428 nm, em: 520 nm) and fluorescein-dextran (ex: 490 nm, em: 520 nm) in the basal side was determined by measuring their fluorescence in a microplate reader (Spectramax M5, Molecular Devices Corporation, San Jose, CA). The luminal-to-basal apparent permeability (Papp) were calculated according to the following equation: […] The average Papp with a single standard deviation is shown (average ± SD).

Take `C[C@H]1O[C@@H](O[C@H]2[C@@H](O)C[C@H](O[C@H]3[C@@H](O)C[C@H](O[C@H]4CC[C@@]5(C)[C@H](CC[C@@H]6[C@@H]5C[C@@H](O)[C@]5(C)[C@@H](C7=CC(=O)OC7)CC[C@]65O)C4)O[C@@H]3C)O[C@@H]2C)C[C@H](O)[C@@H]1O` [digoxin]: the efflux ratio at 3 h in the data set on P-gp (conventional scaffold, no inhibitor) was found to be 2.3; in the data set on P-gp (gradient cross-linked scaffold, no inhibitor) it was 2.7; with P-gp (with zosuquidar (concentration not stated), conventional scaffold, in the presence of P-gp inhibitor zosuquidar), 1.4; in the data set on P-gp (with zosuquidar (concentration not stated), gradient cross-linked scaffold, in the presence of P-gp inhibitor zosuquidar), 1.4.

Regarding `COc1cc2nc(N3CCN(C(=O)c4ccco4)CC3)nc(N)c2cc1OC` [prazosin], the efflux ratio at 3 h on BCRP (no inhibitor, read-out: efflux ratio Papp(B-L)/Papp(L-B)) came out at 6.5; at BCRP (with Ko143 (concentration not stated), with BCRP inhibitor Ko143, read-out: efflux ratio Papp(B-L)/Papp(L-B)) it was 1.7.

In the case of Lucifer yellow [LY], the “permeability through confluent, differentiated monolayers” value in data set [1] is listed as “low”.
